According to patent US7776572B2, “Method for reducing loss of enzyme activity during storage” (Corning Incorporated, priority 1996, dated 2010):

How the values were obtained:
[1] = test system: ^125I-IgG (goat anti-mouse); assay: Radiometric determination of IgG binding to surfactant-coated polystyrene microtiter wells; conditions: for Total IgG binding, Non-Sterilized: coated polystyrene wells; for Total IgG binding, Non-Sterilized / Tight IgG binding, Non-Sterilized: not sterilized; for Total IgG binding, Non-Sterilized / Total IgG binding, Sterilized: after three PBS washes; for Total IgG binding, Sterilized / Tight IgG binding, Sterilized: gamma sterilized (1.5 Mrad); for Tight IgG binding, Sterilized / Tight IgG binding, Non-Sterilized: after two hours in PBS-Tween (0.05%)
Experimental: The hydrophobic surfaces used were flat bottom microtiter plates composed of high binding polystyrene (Corning Costar No. 2581) and medium binding polystyrene (Corning Costar No. 2587). Testing was performed with and without gamma radiation sterilization using cobalt 60 (1.5 Mrad).
The surfactants were applied to the test plates as described in Materials and Methods, followed by sterilization where indicated.
Levels of protein binding were determined using a radiolabeled protein, namely, ^125I-IgG (goat anti-mouse) purchased from DuPont/NEN. Unlabeled IgG in sodium carbonate buffer pH 9.2 was spiked with ^125I-IgG so that the final concentration of labeled IgG and cold IgG in the test solution was 10 μg/mL.
Aliquots of 0.1 milliliters of the protein solution were placed in quadruplicate in the wells of 8-well strips removed from the test microtiter plates. The wells were incubated overnight at 4° C. with shaking. The supernatants were removed from the wells, followed by three washes with 0.2 mL of PBS. The wells were then dried and individually counted to determine “total” IgG binding. After determining “total” binding, the wells were incubated for two hours in 0.2 mL of PBS-Tween (0.05%) at room temperature with shaking. The supernatants were removed from the wells followed by three washes with 0.2 mL of PBS. The wells were dried and individually counted to determine “tight” IgG binding.
Untreated high binding and medium binding plates were used as controls. A comparative experiment was also performed in which a BSA protein coating was used in place of a surfactant coating. The BSA was preabsorbed onto the walls of the wells and then washed to remove excess material. Testing was then performed using the radiolabeled IgG solution as described above.
Radiolabel measurements were performed in a double blind study at BioMolecular Assays (Woburn, Mass.). IgG binding values per microwell were converted to ng/cm^2 values using a surface area of 0.94 cm^2 for a 0.1 mL volume.

[2] = test system: BSA protein (Bovine Serum Albumin, Fraction V); assay: BSA binding to coated polystyrene 24-well plates at different pH, colloidal gold stain; conditions: for Absorbance (550 nm) pH = 9.2: BSA 10 μg/ml in 0.10 M NaHCO3 buffer; for Absorbance (550 nm) pH = 7.4: BSA 10 μg/ml in 0.10 M PBS; for Absorbance (550 nm) pH = 4.6: BSA 10 μg/ml in 0.10 M acetate buffer
Experimental: Polystyrene plates having 24 wells (Corning Costar #9447) were coated as described in Materials and Methods.
BSA protein (Bovine Serum Albumin, Fraction V, Sigma) was prepared at 10 μg/ml in 0.10 M acetate buffer (pH=4.6), in 0.10 M PBS (pH=7.4), and in 0.10 M NaHCO3 buffer (pH=9.2). Wells of each coated plate, along with uncoated controls, were aliquoted 0.50 ml each of the protein solutions. The samples were run in triplicate.
The plates were placed on a rocker table for 30 minutes at 23° C. The protein solutions were then emptied from the plates, and the wells were rinsed three times with dl H2O. Thereafter, 1.0 ml of colloidal gold stain was added to each well (see Materials and Methods). The plates were placed on a rocker table overnight, rinsed three times with dI H2O, and air dried. Absorbance at 550 nm was then read using the Cambridge Technologies Plate Reader.

bound protein = assay: Colloidal gold staining of bound protein after MDCK culture in media containing 5% FBS, visual; conditions: colloidal gold after cell culture, visual observation
Method in brief: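 Polystyrene wells coated with non-ionic surfactants, gamma-sterilized at 1.5 Mrad, seeded with 5.6×10^4 MDCK cells per well in medium with 5% FBS and cultured 2 days at 37 °C, 5% CO2. After fixing, bound protein detected by colloidal gold staining; visual assessment only.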

[3] = test system: GAM-IgG-HRP (goat-anti-mouse-IgG-horseradish peroxidase enzyme labeled antibody); assay: Bound enzyme labeled antibody on strips exposed to aqueous surfactant, rinsed or not rinsed, ABTS readout; conditions: 0.1% surfactant in H2O/isopropanol (95/5), not dried, rinsed 5x with dI H2O
Experimental: Medium binding (catalog #2587) and high binding (catalog #2581) polystyrene 96-well plates (8-well strips) manufactured by Corning Costar were used as follows. […] Strips were incubated for 30 minutes at room temperature on a rocker table. Strips were then emptied and tapped out. […] Immediately following this procedure, each well was aliquoted 0.10 ml of GAM-IgG-HRP (goat-anti-mouse-IgG-horseradish peroxidase enzyme labeled antibody; Kirkegaard and Perry, Gaithersburg, Md., Catalog #074-1806) at 1.0 μg/ml in PBS buffer pH=7.4). Strips were incubated for one hour at room temperature on a rocker table. Strips were then rinsed 5× with PBS buffer containing 0.02% Tween-20 followed by post rinsing with H2O. […] Absorbance at 405 nm was measured on a Cambridge Technologies #7520 Plate Reader.

MDCK cells [4] = assay: Cytotoxicity of extracts of coated plates; format: cell-based; conditions: media extract of coated plates (37° C., 48 hours), MDCK 72 hours, Gram Crystal Violet
Experimental: Cytotoxicity experiments were performed using MDCK cells. The non-ionic surfactants tested were Pluronic L-121, L-122, and P-123; Span 80 and 85; and Brij 30, 72 and 93. These molecules were coated onto 24-well plates (Corning Costar #9447) from 0.1% (w/v) in isopropanol. Untreated polystyrene and normal tissue culture treated polystyrene (Corning Costar #25820) 24-well plates were used as controls. All plates were incubated at 37° C. for 48 hours with 2 ml/well of complete DMEM media containing 10% Fetal Bovine Serum (FBS). This incubation was performed in order to extract any potentially toxic compounds from the coated surface into the cell growth serum. The FBS solutions were then transferred to tissue culture treated polystyrene and each well was inoculated with ≈2×10^4 cells/well of MDCK cells, and then incubated at 37° C. for 72 hours in a 5% CO2 atmosphere. Cells were then stained with Gram Crystal Violet.

BSA = assay: Polymer blends molded into petri dishes, BSA binding by colloidal gold; conditions: for BSA or FBS protein binding: blend in polypropylene or EVA
MDCK cells [5] = assay: MDCK cell attachment to coated polystyrene 24-well plates; format: cell-based; conditions: coated PS 24-well, gamma sterilized, media with 5% FBS, two days, visual
Experimental: The procedures used were as follows. Polystyrene 24-well plates were coated with the non-ionic surfactants listed in Table 5 in accordance with the procedures described in Materials and Methods. Uncoated plates were used as a control. For comparison, plates with a covalently attached acrylamide coating (Corning Costar Catalog #2500) and with a stearic acid coating were also tested. The stearic acid coating was applied in the same manner as the non-ionic surfactants again using a 0.1% (w/v) solution.
The plates were gamma sterilized at 1.5 Mrad and then inoculated with 5.6×10^4 MDCK […] per well in 1 ml of complete media containing 5% FBS (Fetal Bovine Serum). Incubation was carried out at 37° C. in a 5% CO2 atmosphere for two days. The plates were fixed and stained, and cell attachment was noted. Following this, the wells were stained using the colloidal gold technique to detect bound protein. Only visual observations were made.
Experiments were also performed with cells suspended in serum. The cells used in these experiments were MDCK cells. The surfactants used were the same as used in Table 5. Again, reduced binding of the cells to surfaces treated with a non-ionic surfactant was observed.

[6] = blended at 1% into ethylene vinyl acetate
[7] = blended at 5% into ethylene vinyl acetate, silver enhancer
[8] = blended at 5% into polypropylene, silver enhancer

Row | Bound Protein Absorbance (550 nm) BSA (BSA; blended at 5% into polystyrene) | Molecule | Total IgG binding, Non-Sterilized [1] [ng/cm^2] | Total IgG binding, Sterilized [1] [ng/cm^2] | Tight IgG binding, Sterilized [1] [ng/cm^2] | Tight IgG binding, Non-Sterilized [1] [ng/cm^2] | Absorbance (550 nm) pH = 9.2 [2] | Absorbance (550 nm) pH = 7.4 [2] | Absorbance (550 nm) pH = 4.6 [2] | Visual Color Upon Protein Staining (bound protein) | Absorbance (405 nm) High Binding Polystyrene Rinsed [3] | Absorbance (405 nm) Medium Binding Polystyrene Rinsed [3] | cell growth and morphology (MDCK cells [4]) | BSA or FBS protein binding (BSA) | Bound Protein Absorbance (550 nm) BSA (BSA; [6]) | Bound Protein Absorbance (550 nm) BSA (BSA; [7]) | Bound Protein Absorbance (550 nm) BSA (BSA; [8]) | MDCK Attachment (MDCK cells [5])
1 | 0.007 | CCCCCCCC/C=C\CCCCCCCCOCCOCCO [PEO(2) OLEYL ETHER] | 7 | 22 | 4 | 5 | 0.00 | 0.00 | 0.00 | None | 2.10 | 1.90 | confluent cell growth with normal cell morphology | no detectable | 0.000 | 0.000 | 0.000 | 
2 |  | CCCCCCCCCCCCOCCOCCOCCOCCO [PEO(4) LAURYL ETHER] | 2 | 10 | 4 | 2 | 0.00 | 0.00 | 0.00 | None | 2.10 | 1.90 | confluent cell growth with normal cell morphology |  |  |  |  | None
3 |  | PEO(4) SORBITOL MONO-STEARATE | 37 | 130 | 80 | 18 | 0.00 | 0.00 | 0.00 | None |  |  |  |  |  |  | 0.016 | None
4 |  | PEO(20) SORBITOL TRI-STEARATE | 5 | 7 | 4 | 2 | 0.00 | 0.00 | 0.00 | None |  |  |  |  |  |  |  | None
5 |  | SORBITOL MONO-OLEATE | 31 | 33 | 5 | 7 | 0.00 | 0.00 | 0.00 |  |  |  | confluent cell growth with normal cell morphology | no detectable | 0.147 | 0.000 | 0.000 | 
